From patent publication US9995734B2, “Human T cell line assay for evaluating the immunologic identity of glatiramer acetate preparations” (Mylan Inc., priority 2013, dated 2018)

Key:
[1] = test system: Donor 3 COP T-Cell Lines; assay: ATP proliferation assay (CellTiter Glo), Donor 3 COP T-cell lines, incl. reactivity to non-canonical GA peptides; type: cell-based, human; details: for Reactivity (proliferation), Mean: Day 54 of culture
[2] = test system: Donor 4 COP T-Cell Lines; assay: ATP proliferation assay (CellTiter Glo), Donor 4 COP T-cell lines, incl. reactivity to non-canonical GA peptides; type: cell-based, human; details: for response to GMA in comparison to COP: 205-1F4, 10 μg/mL dose; for Mean, ATP proliferation assay: Cell Line 205-1F4; for Proliferation (luminescent ATP assay), Mean: T-cell line 205-1F4, autologous B-LCL; for Reactivity (proliferation), Mean: T-cell line 205-1H3, 0 μg/mL 4121.0

Substance: glatiramer acetate [GMA]
- response in ATP proliferation assay ([1]; 165-D2C, 165-C7C, 165-C4C, Day 39, three concentrations (Table 24)): responded comparably
- Reactivity (proliferation), Mean ([1]; T-cell line 165-B6C, 1 μg/mL antigen, No Antigen 2358): 3939 RLU
- Mean, ATP proliferation assay ([1]; T-cell line 165-B6C, 1 μg/mL, Day 46, after 3 days): 9925 RLU
- Reactivity (proliferation), Mean ([1]; T-cell line 165-B6C, 3 μg/mL antigen, No Antigen 2358): 19344 RLU
- Mean, ATP proliferation assay ([1]; T-cell line 165-B6C, 3 μg/mL, Day 46, after 3 days): 38105 RLU
- Reactivity (proliferation), Mean ([1]; T-cell line 165-B6C, 10 μg/mL antigen, No Antigen 2358): 29012 RLU
- Mean, ATP proliferation assay ([1]; T-cell line 165-B6C, 10 μg/mL, Day 46, after 3 days): 25839 RLU
- Reactivity (proliferation), Mean ([1]; T-cell line 165-B6C, 100 μg/mL antigen, No Antigen 2358): 9856 RLU
- Mean, ATP proliferation assay ([1]; T-cell line 165-B6C, Day 32, 10 μg/mL): 1058 RLU
- Reactivity (proliferation), Mean ([1]; T-cell line 165-B10C, 1 μg/mL antigen, No Antigen 2234): 1942 RLU
- Mean, ATP proliferation assay ([1]; T-cell line 165-B10C, 1 μg/mL, Day 46, after 3 days): 5592 RLU
- Reactivity (proliferation), Mean ([1]; T-cell line 165-B10C, 3 μg/mL antigen, No Antigen 2234): 2658 RLU
- Mean, ATP proliferation assay ([1]; T-cell line 165-B10C, 3 μg/mL, Day 46, after 3 days): 13012 RLU
- Reactivity (proliferation), Mean ([1]; T-cell line 165-B10C, 10 μg/mL antigen, No Antigen 2234): 5854 RLU
- Mean, ATP proliferation assay ([1]; T-cell line 165-B10C, 10 μg/mL, Day 46, after 3 days): 19866 RLU
- Reactivity (proliferation), Mean ([1]; T-cell line 165-B10C, 100 μg/mL antigen, No Antigen 2234): 6380 RLU
- Proliferation (luminescent ATP assay), Mean ([1]; T-cell line 165-C4C, 1 μg/mL antigen, Day 66 of culture, 0 μg/mL 1881): 2668
- Mean, ATP proliferation assay ([1]; T-cell line 165-C4C, 1 μg/mL, Day 39): 9367
- Proliferation (luminescent ATP assay), Mean ([1]; T-cell line 165-C4C, 3 μg/mL antigen, Day 66 of culture, 0 μg/mL 1881): 16108
- Mean, ATP proliferation assay ([1]; T-cell line 165-C4C, 3 μg/mL, Day 39): 26279
- Proliferation (luminescent ATP assay), Mean ([1]; T-cell line 165-C4C, 10 μg/mL antigen, Day 66 of culture, 0 μg/mL 1881): 88509
- Mean, ATP proliferation assay ([1]; T-cell line 165-C4C, 10 μg/mL, Day 39): 31014
- Mean, ATP proliferation assay ([1]; T-cell line 165-C7C, 1 μg/mL, Day 39): 3307
- Proliferation (luminescent ATP assay), Mean ([1]; T-cell line 165-C7C, 1.25 μg/mL antigen, autologous B-LCL): 610 RLU
- Proliferation (luminescent ATP assay), Mean ([1]; T-cell line 165-C7C, 2.5 μg/mL antigen, autologous B-LCL): 2699 RLU
- Mean, ATP proliferation assay ([1]; T-cell line 165-C7C, 3 μg/mL, Day 39): 12832
- Proliferation (luminescent ATP assay), Mean ([1]; T-cell line 165-C7C, 5 μg/mL antigen, autologous B-LCL): 22588 RLU
- Proliferation (luminescent ATP assay), Mean ([1]; T-cell line 165-C7C, 10 μg/mL antigen, autologous B-LCL): 24029 RLU
- Mean, ATP proliferation assay ([1]; T-cell line 165-C7C, 10 μg/mL, Day 39): 42739
- Mean, ATP proliferation assay ([1]; T-cell line 165-D2C, 1 μg/mL, Day 39): 3881
- Mean, ATP proliferation assay ([1]; T-cell line 165-D2C, 3 μg/mL, Day 39): 7503
- Mean, ATP proliferation assay ([1]; T-cell line 165-D2C, 10 μg/mL, Day 39): 13253
- Reactivity (proliferation), Mean ([1]; T-cell line 165-D3C, 1 μg/mL antigen, No Antigen 8319): 24131 RLU
- Mean, ATP proliferation assay ([1]; T-cell line 165-D3C, 1 μg/mL, Day 46, after 3 days): 61535 RLU
- Reactivity (proliferation), Mean ([1]; T-cell line 165-D3C, 3 μg/mL antigen, No Antigen 8319): 58814 RLU
- Mean, ATP proliferation assay ([1]; T-cell line 165-D3C, 3 μg/mL, Day 46, after 3 days): 80112 RLU
- Reactivity (proliferation), Mean ([1]; T-cell line 165-D3C, 10 μg/mL antigen, No Antigen 8319): 57024 RLU
- Mean, ATP proliferation assay ([1]; T-cell line 165-D3C, 10 μg/mL, Day 46, after 3 days): 107772 RLU
- Reactivity (proliferation), Mean ([1]; T-cell line 165-D3C, 100 μg/mL antigen, No Antigen 8319): 14205 RLU
- Mean, ATP proliferation assay ([1]; T-cell line 165-D3C, Day 32, 10 μg/mL): 3436 RLU
- Reactivity (proliferation), Mean ([1]; T-cell line 165-D11C, 1 μg/mL antigen, No Antigen 4571): 3636 RLU
- Mean, ATP proliferation assay ([1]; T-cell line 165-D11C, 1 μg/mL, Day 46, after 3 days): 15655 RLU
- Reactivity (proliferation), Mean ([1]; T-cell line 165-D11C, 3 μg/mL antigen, No Antigen 4571): 6578 RLU
- Mean, ATP proliferation assay ([1]; T-cell line 165-D11C, 3 μg/mL, Day 46, after 3 days): 17777 RLU
- Reactivity (proliferation), Mean ([1]; T-cell line 165-D11C, 10 μg/mL antigen, No Antigen 4571): 16338 RLU
- Mean, ATP proliferation assay ([1]; T-cell line 165-D11C, 10 μg/mL, Day 46, after 3 days): 56609 RLU
- Reactivity (proliferation), Mean ([1]; T-cell line 165-D11C, 100 μg/mL antigen, No Antigen 4571): 14560 RLU
- Mean, ATP proliferation assay ([1]; T-cell line 165-D11C, Day 32, 10 μg/mL): 416 RLU
- Reactivity (proliferation), Mean ([1]; T-cell line 165-E3C, 1 μg/mL antigen, No Antigen 2797): 2954 RLU
- Mean, ATP proliferation assay ([1]; T-cell line 165-E3C, 1 μg/mL, Day 46, after 3 days): 10662 RLU
- Reactivity (proliferation), Mean ([1]; T-cell line 165-E3C, 3 μg/mL antigen, No Antigen 2797): 17065 RLU
- Mean, ATP proliferation assay ([1]; T-cell line 165-E3C, 3 μg/mL, Day 46, after 3 days): 35044 RLU
- Reactivity (proliferation), Mean ([1]; T-cell line 165-E3C, 10 μg/mL antigen, No Antigen 2797): 37602 RLU
- Mean, ATP proliferation assay ([1]; T-cell line 165-E3C, 10 μg/mL, Day 46, after 3 days): 68577 RLU
- Reactivity (proliferation), Mean ([1]; T-cell line 165-E3C, 100 μg/mL antigen, No Antigen 2797): 23437 RLU
- Mean, ATP proliferation assay ([1]; T-cell line 165-E3C, Day 32, 10 μg/mL): 3723 RLU
- Reactivity (proliferation), Mean ([1]; T-cell line 165-F3C, 1 μg/mL antigen, No Antigen 3150): 9423 RLU
- Proliferation (luminescent ATP assay), Mean ([1]; T-cell line 165-F3C, 1 μg/mL antigen, Day 77 of culture, 0 μg/mL 1563): 7277
- Mean, ATP proliferation assay ([1]; T-cell line 165-F3C, 1 μg/mL, Day 46, after 3 days): 45592 RLU
- Reactivity (proliferation), Mean ([1]; T-cell line 165-F3C, 3 μg/mL antigen, No Antigen 3150): 37555 RLU
- Proliferation (luminescent ATP assay), Mean ([1]; T-cell line 165-F3C, 3 μg/mL antigen, Day 77 of culture, 0 μg/mL 1563): 50400
- Mean, ATP proliferation assay ([1]; T-cell line 165-F3C, 3 μg/mL, Day 46, after 3 days): 101328 RLU
- Reactivity (proliferation), Mean ([1]; T-cell line 165-F3C, 10 μg/mL antigen, No Antigen 3150): 44621 RLU
- Proliferation (luminescent ATP assay), Mean ([1]; T-cell line 165-F3C, 10 μg/mL antigen, Day 77 of culture, 0 μg/mL 1563): 70563
- Mean, ATP proliferation assay ([1]; T-cell line 165-F3C, 10 μg/mL, Day 46, after 3 days): 84268 RLU
- Reactivity (proliferation), Mean ([1]; T-cell line 165-F3C, 100 μg/mL antigen, No Antigen 3150): 12391 RLU
- Mean, ATP proliferation assay ([1]; T-cell line 165-F3C, Day 32, 10 μg/mL): 1257 RLU
- Reactivity (proliferation), Mean ([1]; T-cell line 165-F6C, 1 μg/mL antigen, No Antigen 2189): 15671 RLU
- Mean, ATP proliferation assay ([1]; T-cell line 165-F6C, 1 μg/mL, Day 46, after 3 days): 18511 RLU
- Proliferation (luminescent ATP assay), Mean ([1]; T-cell line 165-F6C, 1.25 μg/mL antigen, Day 76 of culture, No Antigen value 517): 629
- Proliferation (luminescent ATP assay), Mean ([1]; T-cell line 165-F6C, 2.5 μg/mL antigen, Day 76 of culture, No Antigen value 517): 3,197
- Reactivity (proliferation), Mean ([1]; T-cell line 165-F6C, 3 μg/mL antigen, No Antigen 2189): 40274 RLU
- Mean, ATP proliferation assay ([1]; T-cell line 165-F6C, 3 μg/mL, Day 46, after 3 days): 43634 RLU
- Proliferation (luminescent ATP assay), Mean ([1]; T-cell line 165-F6C, 5 μg/mL antigen, Day 76 of culture, No Antigen value 517): 11,867
- Reactivity (proliferation), Mean ([1]; T-cell line 165-F6C, 10 μg/mL antigen, No Antigen 2189): 38921 RLU
- Proliferation (luminescent ATP assay), Mean ([1]; T-cell line 165-F6C, 10 μg/mL antigen, Day 76 of culture, No Antigen value 517): 20,141
- Mean, ATP proliferation assay ([1]; T-cell line 165-F6C, 10 μg/mL, Day 46, after 3 days): 34321 RLU
- Reactivity (proliferation), Mean ([1]; T-cell line 165-F6C, 100 μg/mL antigen, No Antigen 2189): 3690 RLU
- Mean, ATP proliferation assay ([1]; T-cell line 165-F6C, Day 32, 10 μg/mL): 1489 RLU
- response in proliferation assay ([1]; all seven Donor 3 COP T-cell lines tested, Day 54): responded well
- reactivity in confirmatory ATP proliferation assay ([1]; six Donor 3 COP lines, Day 32, 10 μg/mL (Table 23)): showed reactivity
- response to GMA in comparison to COP ([2]; Day 50 (Table 27)): 102.7%
- response to GMA in comparison to COP ([2]; Day 58 (Table 28)): 98.5%
- response to GMA in comparison to COP ([2]; Day 71): 101.3%
- Mean, ATP proliferation assay ([2]; Day 50, 1 μg/mL): 17341
- Mean, ATP proliferation assay ([2]; Day 50, 3 μg/mL): 195335
- Mean, ATP proliferation assay ([2]; Day 50, 10 μg/mL): 218954
- Mean, ATP proliferation assay ([2]; Day 58, 3 μg/mL): 29921
- Mean, ATP proliferation assay ([2]; Day 58, 10 μg/mL): 30998
- Mean, ATP proliferation assay ([2]; Day 58, 30 μg/mL): 33915
- Mean, ATP proliferation assay ([2]; Day 58, 100 μg/mL): 32698
- Proliferation (luminescent ATP assay), Mean ([2]; Day 71, 1 μg/mL antigen): 17341
- Proliferation (luminescent ATP assay), Mean ([2]; Day 71, 3 μg/mL antigen): 195335
- Proliferation (luminescent ATP assay), Mean ([2]; Day 71, 10 μg/mL antigen): 218954
- Proliferation (luminescent ATP assay), Mean ([2]; Day 80, 1 μg/mL antigen): 7,477
- Proliferation (luminescent ATP assay), Mean ([2]; Day 80, 2 μg/mL antigen): 64,999
- Proliferation (luminescent ATP assay), Mean ([2]; Day 80, 5 μg/mL antigen): 83,107
- Proliferation (luminescent ATP assay), Mean ([2]; Day 80, 10 μg/mL antigen): 67,482
- Reactivity (proliferation), Mean ([2]; 1 μg/mL antigen): 37654.3
- Reactivity (proliferation), Mean ([2]; 3 μg/mL antigen): 55284.3
- Reactivity (proliferation), Mean ([2]; 10 μg/mL antigen): 60841.7
